Measurements taken from PubChem BioAssay AID248 (DTP/NCI, 2004).
Inconclusive results and toxic doses are left out. Cut-off read from the data, not from the text of the source: active = T/C of 150% or more; inactive = T/C below 125%.

Tested on: L1210 leukemia ip in BDF1 mice, survival T/C
Experiment: NCI In Vivo Anticancer Drug Screen. Data for tumor model L1210 Leukemia (intraperitoneal) in B6D2F1 (BDF1) mice
Details: endpoint: mean survival time, higher = longer survival
Procedure, shortened: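 Mice bearing the transplanted tumor received compound or vehicle. Survival of the treated group was divided by that of the vehicle-treated control group to give the ratio.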

[1] = dose: 100.0 mg/kg/injection, schedule: Q01DX001 (ip), vehicle: saline
[2] = dose: 200.0 mg/kg/injection, schedule: Q01DX001 (ip), vehicle: saline
[3] = dose: 400.0 mg/kg/injection, schedule: Q01DX001 (ip), vehicle: saline
[4] = dose: 100.0 mg/kg/injection, schedule: Q04DX003 (ip), vehicle: saline with Tween-80
[5] = dose: 100.0 mg/kg/injection, schedule: Q04DX003 (ip), vehicle: Klucel (hydroxypropylcellulose) (HPC)
[6] = dose: 200.0 mg/kg/injection, schedule: Q04DX003 (ip), vehicle: Klucel (hydroxypropylcellulose) (HPC)
[7] = dose: 400.0 mg/kg/injection, schedule: Q04DX003 (ip), vehicle: Klucel (hydroxypropylcellulose) (HPC)
[8] = dose: 100.0 mg/kg/injection, schedule: Q01DX009 (ip), vehicle: saline with Tween-80
[9] = dose: 200.0 mg/kg/injection, schedule: Q01DX009 (ip), vehicle: saline with Tween-80
[10] = dose: 400.0 mg/kg/injection, schedule: Q01DX009 (ip), vehicle: saline with Tween-80
[11] = dose: 100.0 mg/kg/injection, schedule: Q04DX002 (ip), vehicle: Klucel (hydroxypropylcellulose) (HPC)
[12] = dose: 200.0 mg/kg/injection, schedule: Q04DX002 (ip), vehicle: Klucel (hydroxypropylcellulose) (HPC)
[13] = dose: 400.0 mg/kg/injection, schedule: Q04DX002 (ip), vehicle: Klucel (hydroxypropylcellulose) (HPC)
[14] = dose: 100.0 mg/kg/injection, schedule: Q01DX009 (ip), vehicle: Klucel (hydroxypropylcellulose) (HPC)
[15] = dose: 200.0 mg/kg/injection, schedule: Q01DX009 (ip), vehicle: Klucel (hydroxypropylcellulose) (HPC)
[16] = dose: 25.0 mg/kg/injection, schedule: Q04DX002 (ip), vehicle: Klucel (hydroxypropylcellulose) (HPC)
[17] = dose: 50.0 mg/kg/injection, schedule: Q04DX002 (ip), vehicle: Klucel (hydroxypropylcellulose) (HPC)
[18] = dose: 50.0 mg/kg/injection, schedule: Q01DX009 (ip), vehicle: saline with Tween-80

Measured: T/C

CCOC(=O)C1=NN(c2ccccc2)C(=O)C1N=Nc1ccc(S(=O)(=O)Nc2nnc(C)s2)cc1 (configuration not stated)
inactive: [1] 110 % of control | [2] 105 % of control | [3] 98 % of control

CC1CC(=O)C2CC(Cl)CCC2(C)C1C (configuration not stated)
inactive: [4] 101 % of control | dose: 150.0 mg/kg/injection, schedule: Q01DX009 (ip), vehicle: Klucel (hydroxypropylcellulose) (HPC) 91 % of control | dose: 225.0 mg/kg/injection, schedule: Q01DX009 (ip), vehicle: Klucel (hydroxypropylcellulose) (HPC) 97 % of control

CC1(C)OC2OC(COC(=O)c3ccccc3)C(O)C2O1 (configuration not stated)
inactive: dose: 50.0 mg/kg/injection, schedule: Q01DX001 (ip), vehicle: carboxymethylcellulose (CMC) 98 % of control | dose: 100.0 mg/kg/injection, schedule: Q01DX001 (ip), vehicle: carboxymethylcellulose (CMC) 101 % of control | dose: 200.0 mg/kg/injection, schedule: Q01DX001 (ip), vehicle: carboxymethylcellulose (CMC) 104 % of control | dose: 400.0 mg/kg/injection, schedule: Q01DX001 (ip), vehicle: carboxymethylcellulose (CMC) 98 % of control

OCC1(CO)CCCC2(COC3(CCCCC3)OC2)C1
inactive: [5] 98 % of control | [6] 94 % of control | [7] 94 % of control

COc1cc2c(cc1OC)-c1c(=O)c3cc(OC)c(OC)cc3n([O-])[n+]1CC2
inactive: [1] 93 % of control | [2] 94 % of control | [3] 89 % of control

O=[N+]([O-])c1ccc(OCc2ccccc2)nc1
inactive: [8] 104 % of control | [9] 97 % of control | [10] 93 % of control

CC(=O)N1CCN(C(C)=O)c2ccccc21
inactive: [5] 106 % of control | [6] 103 % of control | [7] 106 % of control

CCOC(=O)COc1c(C(C)(C)C)cc([N+](=O)[O-])c(C)c1[N+](=O)[O-]
inactive: [11] 100 % of control | [12] 91 % of control | [13] 106 % of control

Cc1ccc(NS(=O)(=O)c2ccccc2)c(C)c1
inactive: [14] 99 % of control | [5] 104 % of control | [15] 99 % of control | [6] 95 % of control | dose: 400.0 mg/kg/injection, schedule: Q01DX009 (ip), vehicle: Klucel (hydroxypropylcellulose) (HPC) 94 % of control | [7] 98 % of control

COC(=O)C1C2CC3C(OC(=O)C31C)C2I (configuration not stated)
inactive: [1] 90 % of control | [2] 107 % of control | [3] 110 % of control

O=C(O)C1Cc2ccccc21 (configuration not stated)
inactive: [16] 96 % of control | [17] 96 % of control | [11] 92 % of control

CC(C)OC(=O)Nc1cccnc1
inactive: [11] 92 % of control | [12] 98 % of control | [13] 103 % of control

CCCCCCCCCCCCCCCCCCNC(=S)NCCCCCCCCCCCCCCCC
inactive: dose: 55.0 mg/kg/injection, schedule: Q01DX Z (ip), vehicle: methylcellulose (MC) 123 % of control | dose: 83.0 mg/kg/injection, schedule: Q01DX Z (ip), vehicle: methylcellulose (MC) 106 % of control | dose: 125.0 mg/kg/injection, schedule: Q01DX Z (ip), vehicle: methylcellulose (MC) 104 % of control

O=C1/C(=C\c2cccc3ccccc23)COC/C1=C/c1cccc2ccccc12
inactive: dose: 100.0 mg/kg/injection, schedule: Q01DX009 (ip), vehicle: saline 93 % of control | dose: 200.0 mg/kg/injection, schedule: Q01DX009 (ip), vehicle: saline 97 % of control | dose: 400.0 mg/kg/injection, schedule: Q01DX009 (ip), vehicle: saline 98 % of control

COCC=C(C)C
inactive: [18] 106 % of control | [8] 92 % of control | [9] 95 % of control

O=P(OCc1ccccc1)(OCc1ccccc1)C(Nc1ccccc1)c1ccccc1 (configuration not stated)
inactive: dose: 50.0 mg/kg/injection, schedule: Q01DX009 (ip), vehicle: Klucel (hydroxypropylcellulose) (HPC) 100 % of control | [14] 103 % of control | [5] 100 % of control | [15] 103 % of control | [6] 94 % of control | [7] 93 % of control

CCCCCCCCCCCCCCCCN(C)S(=O)(=O)c1ccc2sc(SC)[n+](C)c2c1 (tested in a mixture with another compound)
inactive: [8] 94 % of control | [4] 98 % of control | [9] 94 % of control | dose: 200.0 mg/kg/injection, schedule: Q04DX003 (ip), vehicle: saline with Tween-80 102 % of control | [10] 102 % of control | dose: 400.0 mg/kg/injection, schedule: Q04DX003 (ip), vehicle: saline with Tween-80 96 % of control

O=C(O)c1ccc[cH-]1.O=C(O)c1ccc[cH-]1.[Fe+2]
inactive: [11] 110 % of control | [12] 100 % of control | [13] 103 % of control

COc1cc2c(cc1OC)-c1cc3cc(OC)c(OC)cc3c(C)[n+]1CC2 (tested in a mixture with another compound)
inactive: dose: 12.5 mg/kg/injection, schedule: Q04DX002 (ip), vehicle: Klucel (hydroxypropylcellulose) (HPC) 110 % of control | dose: 25.0 mg/kg/injection, schedule: Q01DX009 (ip), vehicle: saline with Tween-80 104 % of control | [16] 106 % of control | [18] 107 % of control | [17] 95 % of control

Cc1nnc2c3ccccc3ccn12
inactive: dose: 50.0 mg/kg/injection, schedule: Q01DX001 (ip), vehicle: saline 101 % of control | [1] 101 % of control | [2] 103 % of control
